Results taken from ChEMBL document CHEMBL1127646, “Mechanism-based isocoumarin inhibitors for blood coagulation serine proteases. Effect of the 7-substituent in 7-amino-4-chloro-3-(isothioureidoalkoxy)isocoumarins on inhibitory and anticoagulant potency” (J Med Chem, 1994).
Peptide text beside a SMILES is read from it. * marks the point of attachment. Dansyl = CN(C)c1cccc2c(S(=O)(=O)*)cccc12; CH2Cl = ClC*

Columns and labels:
[1] = Hydrolysis half life (t1/2); type: ADME
[2] = biological target: Coagulation factor X (Homo sapiens) (UniProt P00742); experiment: Inhibition of human factor Xa (inhibitor concentration were 3.6-44 uM)
Coagulation factor X (Homo sapiens), sequence (P00742 41-179 limits assumed): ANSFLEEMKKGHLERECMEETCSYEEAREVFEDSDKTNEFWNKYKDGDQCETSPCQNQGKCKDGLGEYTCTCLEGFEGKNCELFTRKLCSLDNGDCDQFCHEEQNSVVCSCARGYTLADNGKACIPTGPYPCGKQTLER
Coagulation factor X (Homo sapiens), sequence (P00742 235-488 limits assumed): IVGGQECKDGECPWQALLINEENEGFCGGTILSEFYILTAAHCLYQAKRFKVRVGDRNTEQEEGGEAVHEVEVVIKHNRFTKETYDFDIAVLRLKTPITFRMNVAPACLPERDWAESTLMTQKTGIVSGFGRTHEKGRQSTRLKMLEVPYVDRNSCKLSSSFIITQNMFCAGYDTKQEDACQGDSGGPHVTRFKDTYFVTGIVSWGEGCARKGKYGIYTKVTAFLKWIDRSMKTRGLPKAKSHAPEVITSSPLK

[3] = biological target: T1, Coagulation factor XII (Homo sapiens) (UniProt P00748); experiment: Inhibition of human coagulation factor XII (inhibitor concentration were 3.6-4.9 uM)
T1 sequence (whole entry): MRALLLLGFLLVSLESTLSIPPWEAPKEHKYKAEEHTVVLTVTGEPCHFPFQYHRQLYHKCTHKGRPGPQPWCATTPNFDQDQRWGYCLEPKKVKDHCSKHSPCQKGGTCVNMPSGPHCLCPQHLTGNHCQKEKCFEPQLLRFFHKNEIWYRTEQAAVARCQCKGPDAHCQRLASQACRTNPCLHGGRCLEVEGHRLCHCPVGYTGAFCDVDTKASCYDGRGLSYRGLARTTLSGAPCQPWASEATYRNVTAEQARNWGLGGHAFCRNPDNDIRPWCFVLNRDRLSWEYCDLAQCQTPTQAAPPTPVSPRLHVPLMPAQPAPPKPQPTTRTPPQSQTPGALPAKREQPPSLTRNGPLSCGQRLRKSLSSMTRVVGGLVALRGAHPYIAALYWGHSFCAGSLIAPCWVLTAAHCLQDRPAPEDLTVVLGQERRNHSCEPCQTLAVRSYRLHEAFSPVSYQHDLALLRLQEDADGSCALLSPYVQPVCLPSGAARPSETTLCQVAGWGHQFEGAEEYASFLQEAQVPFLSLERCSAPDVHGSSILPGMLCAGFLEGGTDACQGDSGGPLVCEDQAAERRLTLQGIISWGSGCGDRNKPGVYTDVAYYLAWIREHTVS

[4] = biological target: Prothrombin (Homo sapiens) (UniProt P00734); experiment: Inhibition of human thrombin (inhibitor concentration 1.2-54 uM)
Prothrombin (Bos taurus) = Prothrombin (Bos taurus) (UniProt P00735); experiment: Inhibition of bovine thrombin (inhibitor concentration 1.2-54 uM)
[5] = biological target: Coagulation factor IX (Homo sapiens) (UniProt P00740); experiment: Inhibition of porcine factor IXa at 8.3-82 uM; conditions: Sus scrofa, target entry is the homologue from another species
[6] = biological target: T2, Coagulation factor VII (Homo sapiens) (UniProt P08709); experiment: Inhibition of human coagulation factor VII at 7.2-44 uM
T2 sequence (whole entry): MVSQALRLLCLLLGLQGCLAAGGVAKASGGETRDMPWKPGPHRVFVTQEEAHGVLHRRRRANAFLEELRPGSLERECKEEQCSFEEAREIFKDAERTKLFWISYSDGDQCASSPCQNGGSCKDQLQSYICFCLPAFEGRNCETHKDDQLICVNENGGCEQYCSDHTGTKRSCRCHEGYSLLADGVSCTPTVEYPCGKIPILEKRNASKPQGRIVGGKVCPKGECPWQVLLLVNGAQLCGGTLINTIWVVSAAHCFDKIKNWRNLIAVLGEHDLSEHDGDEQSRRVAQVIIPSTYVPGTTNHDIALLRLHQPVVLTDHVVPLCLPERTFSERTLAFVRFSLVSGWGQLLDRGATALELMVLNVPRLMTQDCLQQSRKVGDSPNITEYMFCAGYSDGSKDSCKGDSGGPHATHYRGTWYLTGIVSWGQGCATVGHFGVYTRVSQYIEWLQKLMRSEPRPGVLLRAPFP

[7] = biological target: Coagulation factor XI (Homo sapiens) (UniProt P03951); experiment: Compound was evaluated for inhibition of enzyme human coagulation factor XI (inhibitor concentration were 0.7-0.8 uM)
Coagulation factor XI (Homo sapiens), sequence (P03951 19-387 limits assumed): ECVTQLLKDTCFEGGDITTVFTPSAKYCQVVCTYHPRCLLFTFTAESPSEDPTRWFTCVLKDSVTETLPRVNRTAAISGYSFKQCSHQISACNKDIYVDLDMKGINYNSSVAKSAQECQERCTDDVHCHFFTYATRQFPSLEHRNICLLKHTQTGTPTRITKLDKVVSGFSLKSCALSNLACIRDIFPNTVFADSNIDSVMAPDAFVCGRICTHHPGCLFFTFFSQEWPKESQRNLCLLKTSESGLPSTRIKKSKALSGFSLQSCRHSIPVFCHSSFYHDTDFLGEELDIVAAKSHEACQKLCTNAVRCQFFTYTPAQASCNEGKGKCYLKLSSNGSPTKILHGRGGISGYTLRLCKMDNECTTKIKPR
Coagulation factor XI (Homo sapiens), sequence (P03951 388-625 limits assumed): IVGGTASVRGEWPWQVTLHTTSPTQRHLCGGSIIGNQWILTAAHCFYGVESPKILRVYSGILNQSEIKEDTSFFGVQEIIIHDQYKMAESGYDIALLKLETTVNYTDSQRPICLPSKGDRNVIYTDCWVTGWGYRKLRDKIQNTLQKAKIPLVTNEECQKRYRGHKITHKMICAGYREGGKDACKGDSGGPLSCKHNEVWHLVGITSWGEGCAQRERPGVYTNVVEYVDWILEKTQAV

[8] = Anticoagulant activity was determined in Ortho-activated thrombofax (APTT) assay at a dose 31 uM in human dead plasma; type: functional
[9] = Anticoagulant activity was determined in Ortho-activated thrombofax (APTT) assay at a dose 9.4 uM in human dead plasma; type: functional
[10] = Anticoagulant activity was determined in Ortho-activated thrombofax (APTT) assay at a dose 16 uM in pig plasma; type: functional, Sus scrofa
[11] = biological target: T3, Coagulation factor III (Sus scrofa) (UniProt Q6RCS8); experiment: Anticoagulant activity in PT assay at a dose 16 uM
T3 sequence (whole entry): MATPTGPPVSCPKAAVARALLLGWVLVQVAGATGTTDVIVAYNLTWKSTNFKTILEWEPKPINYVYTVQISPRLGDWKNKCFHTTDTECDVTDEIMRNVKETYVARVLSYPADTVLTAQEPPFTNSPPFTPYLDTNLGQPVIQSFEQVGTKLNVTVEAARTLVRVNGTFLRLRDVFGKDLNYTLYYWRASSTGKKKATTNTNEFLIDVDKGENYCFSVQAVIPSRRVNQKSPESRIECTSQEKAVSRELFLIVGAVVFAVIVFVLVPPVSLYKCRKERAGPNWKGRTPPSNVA

[12] = biological target: T3, Coagulation factor III (Sus scrofa); experiment: Anticoagulant activity in PT assay at a dose 32 uM
[13] = Anticoagulant activity was determined in Ortho-activated thrombofax (APTT) assay at a dose 32 uM in pig plasma; type: functional, Sus scrofa
[14] = biological target: Tissue factor (Homo sapiens) (UniProt P13726); experiment: Anticoagulant activity in PT assay at a dose of 31 uM
Tissue factor (Homo sapiens), sequence (P13726 whole entry): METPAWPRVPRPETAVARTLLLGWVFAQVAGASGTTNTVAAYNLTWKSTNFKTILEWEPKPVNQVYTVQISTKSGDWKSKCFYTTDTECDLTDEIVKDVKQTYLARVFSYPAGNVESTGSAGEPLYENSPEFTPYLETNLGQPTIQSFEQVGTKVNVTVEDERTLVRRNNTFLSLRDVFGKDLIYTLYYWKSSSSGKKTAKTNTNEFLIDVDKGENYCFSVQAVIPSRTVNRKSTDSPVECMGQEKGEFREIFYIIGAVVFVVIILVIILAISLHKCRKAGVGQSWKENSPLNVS

[15] = biological target: T3, Coagulation factor III (Sus scrofa); experiment: Anticoagulant activity in PT assay at a dose of 32 uM
[16] = Anticoagulant activity was determined in Ortho-activated thrombofax (APTT) assay at a dose 32 uM in human dead plasma; type: functional

Structure (SMILES)	half-life [1] [min]	K obs / 1 [2] [M⁻¹ s⁻¹]	K obs / 1 [3] [M⁻¹ s⁻¹]	K obs / 1 [4] [M⁻¹ s⁻¹]	K obs / 1 (Prothrombin (Bos taurus)) [M⁻¹ s⁻¹]	K obs / 1 [5] [M⁻¹ s⁻¹]	K obs / 1 [6] [M⁻¹ s⁻¹]	other results
N=C(N)SCCOc1oc(=O)c2cc(NC(=O)[C@@H](N)Cc3ccccc3)ccc2c1Cl	18	3070	82000	3070	4240	–	–	–
N=C(N)SCCCOc1oc(=O)c2cc(NC(=O)Cc3ccccc3)ccc2c1Cl	61	610	610	610	600	610	610	K obs / 1 [7]: 610 M⁻¹ s⁻¹
CC(C)(C)OC(=O)N[C@H](Cc1ccccc1)C(=O)Nc1ccc2c(Cl)c(OCCSC(=N)N)oc(=O)c2c1	42	1620	–	1140	1090	–	–	–
CC(C)(C)OC(=O)N[C@@H](Cc1ccccc1)C(=O)Nc1ccc2c(Cl)c(OCCCSC(=N)N)oc(=O)c2c1	51	–	–	230	190	–	–	–
N=C(N)SCCOc1oc(=O)c2cc(NC(=O)Nc3ccccc3)ccc2c1Cl	108	4740	50000	22400	25000	1790	3140	K obs / 1 [7]: 104000 M⁻¹ s⁻¹; APTT [8]: 87.3 s; APTT [9]: 47.7 s; APTT [10]: >120 s; PT [11]: 28.5 s; PT [12]: 58.3 s
C[C@H](NC(=O)Nc1ccc2c(Cl)c(OCCSC(=N)N)oc(=O)c2c1)c1ccccc1	56	–	–	21000	41300	3980	1830	APTT [8]: 111.2 s; APTT [9]: 57.6 s; APTT [13]: >120 s; PT [12]: 30 s
N=C(N)SCCCOc1oc(=O)c2cc(NC(=O)Nc3ccccc3)ccc2c1Cl	148	50	7720	1840	970	110	720	–
CC(=O)Nc1ccc2c(Cl)c(OCCCSC(=N)N)oc(=O)c2c1	68	–	–	310	420	–	–	–
CC(C)(C)OC(=O)N[C@@H](Cc1ccccc1)C(=O)Nc1ccc2c(Cl)c(OCCSC(=N)N)oc(=O)c2c1	39	–	–	1090	1040	–	–	–
N=C(N)SCCOc1oc(=O)c2cc(NC(=O)[C@H](N)Cc3ccccc3)ccc2c1Cl	21	3770	107000	1340	1280	1590	4010	–
N=C(N)SCCCOc1oc(=O)c2cc(NC(=O)[C@@H](N)Cc3ccccc3)ccc2c1Cl	42	–	–	220	180	–	–	–
N=C(N)SCCOc1oc(=O)c2cc(NC(=O)Cc3ccccc3)ccc2c1Cl	–	3630	59000	6730	15800	2620	1100	–
C[C@H](NC(=O)OC(C)(C)C)C(=O)N[C@@H](C)C(=O)Nc1ccc2c(Cl)c(OCCSC(=N)N)oc(=O)c2c1	40	–	–	970	1530	–	–	–
CC(=O)CCC(=O)Nc1ccc2c(Cl)c(OCCSC(=N)N)oc(=O)c2c1	28	–	–	1770	–	–	–	APTT [8]: >140 s; PT [14]: 42.5 s
C[C@@H](NC(=O)Nc1ccc2c(Cl)c(OCCSC(=N)N)oc(=O)c2c1)c1ccccc1	62	–	–	12000	29500	–	–	APTT [13]: >120 s; PT [15]: 26.2 s
O=c1oc(Cl)c(Cl)c2ccccc12	–	–	64	10	25	10	31	–
N=C(N)SCCCOc1oc(=O)c2ccccc2c1Cl	–	–	27000	–	1400	90	450	K obs / 1 [7]: 47000 M⁻¹ s⁻¹
N=C(N)SCCOc1oc(=O)c2cc(NC(=O)CCc3ccccc3)ccc2c1Cl	39	–	–	2150	–	–	–	APTT [8]: 76.2 s; APTT [16]: 140 s; APTT [9]: 52.4 s; PT [14]: 24.4 s
N=C(N)SCCOc1oc(=O)c2cc(NC(=O)Nc3cccc4ccccc34)ccc2c1Cl	–	–	–	5800	17500	–	–	–
N=C(N)SCCOc1oc(=O)c2cc(NC(=O)NCc3ccccc3)ccc2c1Cl	–	2340	45000	11700	16800	2320	1810	K obs / 1 [7]: 105000 M⁻¹ s⁻¹; APTT [8]: 115.4 s; APTT [9]: 60.1 s; APTT [13]: >120 s; PT [12]: 31.1 s
N=C(N)SCCCOc1oc(=O)c2cc(NC(=O)[C@H](N)Cc3ccccc3)ccc2c1Cl	46	–	–	470	400	–	–	–
CCOc1oc(=O)c2cc(NC(=N)N)ccc2c1Cl	–	11000	22000	–	55000	2850	2200	K obs / 1 [7]: 60000 M⁻¹ s⁻¹
N=C(N)SCCOc1oc(=O)c2cc(NC(=O)NC(c3ccccc3)c3ccccc3)ccc2c1Cl	168	–	–	7050	–	–	–	APTT [8]: 121 s; PT [14]: 18.4 s
CN(C)c1cccc2c(S(=O)(=O)N[C@@H](CCC(=O)O)C(=O)NCC(=O)N[C@@H](CCCN=C(N)N)C(=O)CCl)cccc12 (Dansyl-Glu-Gly-Arg-CH2Cl)	–	–	–	–	–	180	20	–
CC(C)NC(=O)Nc1ccc2c(Cl)c(OCCSC(=N)N)oc(=O)c2c1	–	–	–	5000	4100	–	–	–
N=C(N)SCCCOc1oc(=O)c2cc(N)ccc2c1Cl	90	60	6200	760	630	80	430	K obs / 1 [7]: 22000 M⁻¹ s⁻¹
N=C(N)SCCCOc1oc(=O)c2cc(NC(=O)NCc3ccccc3)ccc2c1Cl	148	–	–	700	420	–	–	–
N=C(N)SCCCOc1oc(=O)c2cc(NC(=O)CCc3ccccc3)ccc2c1Cl	66	–	–	630	820	–	–	–
CC(C)(C)OC(=O)N[C@H](Cc1ccccc1)C(=O)Nc1ccc2c(Cl)c(OCCCSC(=N)N)oc(=O)c2c1	55	–	–	520	330	–	–	–
C[C@H](N)C(=O)N[C@@H](C)C(=O)Nc1ccc2c(Cl)c(OCCSC(=N)N)oc(=O)c2c1	–	1490	–	880	1070	–	–	–
